Legend:
CDK1/cyclin B = target: T1, CDK1/cyclin B (Homo sapiens, UniProt P06493); test: CDK1/cyclin B kinase inhibition assay (histone H1, [γ-33P]ATP); type: biochemical; details: averaged from triplicates; 15 μM ATP
T1 construct: made in house; host or cells: Sf9 insect cells (baculovirus co-infection)
Procedure: (§1) CDK1/cyclin B and CDK2/cyclin E kinases were produced in Sf9 insect cells coinfected with appropriate baculoviral constructs. The cells were harvested 70 h post infection, incubated in lysis buffer (50 mM Tris pH 7.4, 150 mM NaCl, 5 mM EDTA, 20 mM NaF, 1% Tween 20, 1 mM DTT, 0.1 mM PMSF, 0.5 μg/ml leupeptine, 1 μg/ml aprotonine) for 30 min on ice and the soluble fraction was recovered by centrifugation at 20.000 g for 10 min. The enzymes were purified on NiNTA column (Qiagen), stored at 4° C. and used within a week. To carry out the enzyme inhibition assays under linear conditions, the final point test system for kinase activity measurement was used. Kinase was added to reaction mixture in such a way as to obtain linear activity with respect to the concentration of enzyme and with respect to time. For determination of kinase inhibition the reaction mixture contained 1 mg/ml histone H1 (type III-S, Sigma) in the presence of 15 μM ATP, 0.05 μCi [γ-^33P]ATP and the tested compound in a final volume of 10 μl; all in reaction buffer (50 mM HEPES, 10 mM MgCl2, 5 mM EGTA, 10 mM 2-glycerolphosphate, 1 mM NaF, 1 mM DTT, pH 7.4). After 20 min incubation, the reactions were stopped by the addition of 5 μl of a 3% H3PO4, aliquots were spotted on P-81 phosphocellulose (Whatman, USA) that was subsequently washed 3× with 5% H3PO4 and finally air dried. The measurements of kinase inhibition employed digital image analyzer BAS-1800 (Fujifilm, Japan). Kinase activity was usually expressed as a percentage of maximum activity. […] For the purpose of kinetic analysis, the activity was expressed as arbitrary units (AU) of digital image analyzer signal.

CDK2/cyclin E = target: T2, CDK2/cyclin E (Homo sapiens, UniProt P24941); test: CDK2/cyclin E kinase inhibition assay (histone H1, [γ-33P]ATP); type: biochemical; details: for IC50: averaged from triplicates, 15 μM ATP
T2 construct: made in house; host or cells: Sf9 insect cells (baculovirus co-infection)
Procedure: as §1

T1 sequence (P06493 whole entry): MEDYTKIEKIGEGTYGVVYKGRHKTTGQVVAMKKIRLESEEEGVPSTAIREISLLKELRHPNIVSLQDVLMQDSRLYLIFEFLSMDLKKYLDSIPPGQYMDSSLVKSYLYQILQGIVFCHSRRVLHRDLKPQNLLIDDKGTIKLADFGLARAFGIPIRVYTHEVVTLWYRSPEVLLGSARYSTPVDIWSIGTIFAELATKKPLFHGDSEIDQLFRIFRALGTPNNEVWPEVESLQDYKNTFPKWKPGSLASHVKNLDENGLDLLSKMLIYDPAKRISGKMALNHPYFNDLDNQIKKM
T1 sequence (P14635 whole entry partner): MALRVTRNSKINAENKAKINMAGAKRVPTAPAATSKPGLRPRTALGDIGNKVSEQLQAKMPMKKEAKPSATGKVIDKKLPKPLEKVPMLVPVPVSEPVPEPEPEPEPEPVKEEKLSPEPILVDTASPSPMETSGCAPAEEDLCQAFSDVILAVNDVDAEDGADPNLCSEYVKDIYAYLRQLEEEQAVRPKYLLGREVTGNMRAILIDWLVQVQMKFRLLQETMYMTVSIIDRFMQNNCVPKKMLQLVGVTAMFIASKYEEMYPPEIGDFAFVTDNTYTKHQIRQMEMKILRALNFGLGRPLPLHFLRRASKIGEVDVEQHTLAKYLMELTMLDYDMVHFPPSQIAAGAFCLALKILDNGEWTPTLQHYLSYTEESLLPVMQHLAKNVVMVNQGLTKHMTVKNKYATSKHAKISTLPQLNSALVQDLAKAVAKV

Row | SMILES | IC50 (CDK1/cyclin B) | IC50 (CDK2/cyclin E) | inhibition of the enzyme CDK2 (in words) (CDK2/cyclin E)
1 | Nc1n[nH]c(N)c1N=Nc1ccc2ccccc2c1 [Compound 29b, 3,5-diamino-4-(naphth-2-yl)azo-pyrazole] | 16 µM | 15 µM | –
2 | Nc1n[nH]c(N)c1/N=N/c1ccc(I)cc1 [Compound 6b, 3,5-diamino-4-(4-iodo)phenylazo-pyrazole] | > 100 µM | – | –
3 | N=C(N)NS(=O)(=O)c1ccc(N=Nc2c(N)n[nH]c2N)cc1 [Compound 19b, N-[amino(imino)methyl]-4-[(3,5-diamino-pyrazol-4-yl)azo]-benzansulfonamide] | > 100 µM | – | –
4 | Nc1n[nH]c(N)c1N=Nc1ccc(S(=O)(=O)Nc2nccs2)cc1 [Compound 20b, 4-[(3,5-diaminopyrazol-4-yl)azo]-N-(thiazol-2-yl)-benzensulfonamide] | > 100 µM | > 100 µM | –
5 | CC(=O)NS(=O)(=O)c1ccc(N=Nc2c(N)n[nH]c2N)cc1 [Compound 18b, N-({4-[(3,5-diamino-pyrazol-4-yl)azo]phenyl}sulfonyl)-acetamide] | > 100 µM | > 100 µM | failed to inhibit the enzyme
6 | Cc1cc(C)nc(NS(=O)(=O)c2ccc(N=Nc3c(N)n[nH]c3N)cc2)n1 [Compound 21b, 4-[(3,5-diamino-pyrazol-4-yl)-azo]-N-(4,6-dimethylpyrimidin-2-yl)benzensulfonamide] | > 100 µM | > 100 µM | failed to inhibit the enzyme
7 | Nc1n[nH]c(N)c1/N=N/c1ccc(Cl)cc1 [Compound 4b, 3,5-diamino-4-(4-chloro)phenylazo-pyrazole] | 60 µM | 45 µM | –
8 | Nc1n[nH]c(N)c1/N=N/c1cccc(S(=O)(=O)c2cccc(/N=N/c3c(N)n[nH]c3N)c2)c1 [Compound 35d] | > 100 µM | > 100 µM | –
9 | Nc1n[nH]c(N)c1/N=N/c1ccc(F)cc1 [Compound 3b, 3,5-diamino-4-(4-fluoro)phenylazo-pyrazole] | 25 µM | 24 µM | –
10 | Cc1cc2nc(Cc3ccccc3N=Nc3c(N)n[nH]c3N)c(=O)[nH]c2cc1C [Compound 27b] | > 100 µM | > 100 µM | –
11 | Nc1n[nH]c(N)c1/N=N/c1ccc(C(=O)c2ccc(/N=N/c3c(N)n[nH]c3N)cc2)cc1 [Compound 32d] | > 100 µM | > 100 µM | –
12 | COc1ccc(NS(=O)(=O)c2ccc(N=Nc3c(N)n[nH]c3N)cc2)nn1 [Compound 23b, 4-[(3,5-diamino-pyrazol-4-yl)-azo]-N-(6-methoxypyridazin-3-yl)-benzensulfonamide] | > 100 µM | > 100 µM | –
13 | Nc1n[nH]c(N)c1/N=N/c1ccc(-c2nc3ccccc3[nH]c2=O)cc1 [Compound 24b] | > 100 µM | > 100 µM | –
14 | Cc1c(/N=N/c2c(N)n[nH]c2N)c(=O)n(-c2ccccc2)n1C [Compound 31b] | > 100 µM | > 100 µM | –
15 | Nc1n[nH]c(N)c1N=Nc1cccc(C(=O)O)c1 [Compound 14b, 3,5-diamino-4-(3-carboxy)phenylazo-pyrazole] | 34 µM | 27 µM | –
16 | Nc1n[nH]c(N)c1/N=N/c1ccc(S(=O)(=O)c2ccc(/N=N/c3c(N)n[nH]c3N)cc2)cc1 [Compound 34d] | > 100 µM | > 100 µM | –
17 | Nc1n[nH]c(N)c1/N=N/c1cccc(C(=O)c2cccc(/N=N/c3c(N)n[nH]c3N)c2)c1 [Compound 33d] | > 100 µM | > 100 µM | –
18 | Nc1n[nH]c(N)c1/N=N/c1ccc(Br)cc1 [Compound 5b, 3,5-diamino-4-(4-bromo)phenylazo-pyrazole] | > 100 µM | – | –
19 | Nc1n[nH]c(N)c1N=Nc1ccccc1Cc1nc2ccccc2[nH]c1=O [Compound 26b] | – | 95 µM | –
20 | Nc1n[nH]c(N)c1/N=N/c1ccccc1-c1nc2ccccc2[nH]c1=O [Compound 25b] | > 100 µM | > 100 µM | –
21 | COc1cnc(NS(=O)(=O)c2ccc(N=Nc3c(N)n[nH]c3N)cc2)nc1 [Compound 22b, 4-[(3,5-diamino-pyrazol-4-yl)-azo]-N-(5-methoxypyrimidin-2-yl)-benzensulfonamide] | > 100 µM | > 100 µM | –

Reference: patent publication US8357673B2, “4-arylazo-3,5-diamino-pyrazole compounds and use thereof” (Univerzita Palackeho V Olomouci, priority 2004, dated 2013)
